The test system of one data set is male germ cells. The data set is described as follows: In vivo transduction of male germ cells followed by natural matings, transgenic progeny by PCR and Southern blot. Details: species or system C57/B1/6J mice. The conditions noted are these: IP 4 μg/gm body wt before in vivo transduction.
Data set [1] concerns male germ cells of the testis. The data set is described as follows: Depopulating the recipient testis of male germ cells, histologic analysis. Type of data set: in vivo, C57BL/6J mice. The conditions noted are these: two months after treatment. Here is the method: Comparison of Depopulating Treatments. Eight-week-old C57BL/6J mice were allowed to acclimatize for a few days and then were assigned to one of the following three treatment groups. They received: (1) 400 Rad gamma irradiation; (2)4 μg/g body weight of busulfan (1,4-butanediol dimethanesulphonate; Myleran, Glaxo Wellcome); or (3) a combination treatment of busulfan (4 μg/g body wt) followed one week later by 400 Rad of gamma irradiation (“busulfan/400 Rad” treatment). A fourth group of untreated C57BL/6J mice of the same age as the treatment groups was used as a control. There were 24 mice in each treatment group, and 3 mice were sacrificed at each of the following time intervals after treatment: 5 hours, 24 hours, 48 hours, 72 hours, 1 week, 2 weeks, I month and 2 months after treatment. […]
Delivery of an Alkylating Agent to Recipient Vertebrates. The male mice receiving busulfan received a dose of 4 μg busulfan per g body wt. The busulfan was first dissolved 8 mg/mL in 100% dimethyl sulfoxide (DMSO) then, immediately before injection, was diluted 1:1 in phosphate buffered saline, pH 7.4. The mice were injected with the diluted busulfan solution intraperitoneally. Irradiation Treatment of Recipient Vertebrates. For the gamma irradiation treatment, mice were anesthetized with 0.017 mL/g body wt. of 2.5% Avertin. Gamma irradiation was specifically directed to the testis in the following manner. Each mouse was placed in a lead chamber with only the testis and lower abdomen exposed through elliptical holes to the irradiating source (^137Cs Gammacell 40 irradiator [Nordion]). There were six aligned holes in the floor and roof of the chamber through which the gamma radiation passed unobstructed. After irradiation the animals were allowed to recover from the anesthesia on a warm heating pad or water bed until they regained consciousness. Histology. At selected time points, mice from each treatment group were euthanized, and testicular tissues to be examined were fixed in 10% formalin in PBS, pH 7.4, at 4° C. for 24 hours. Small slits in the testis capsule were made to allow penetration of the fixative. Fixed samples were washed four times with PBS, and embedded in paraffin using a Tissue Tek-II tissue processor (MET). Sections of 8 μm thickness were cut, stained with haemotoxylin and eosin (H&E), and mounted with Aquamount (Lerner Laboratories) on glass slides with coverslips. The sections were viewed on a Zeiss or Olympic light microscope with a 40× objective lens (total magnification 400×). Quantitative Histologic Analysis. Quantitative data were collected from the testes of two animals for each of the treatment groups at two months after treatment. (Table 2). For the control group only one mouse was used. The seminiferous tubules in a single section were counted using a 5× objective on a Zeiss light microscope (50× total magnification). Individual seminiferous tubules were examined at 400× total magnification. Seminiferous tubules were considered severely damaged if hardly any cells remained in the tubule, and the tubule consisted of a basement membrane with a single layer of cells, mostly spermatogonia, lying along the basement membrane. Moderately damaged tubules were tubules, in which some of the spermatogenic layers close to the lumen were partially sloughed off. Spermatozoan heads were counted in the tubules and averaged over the total number of tubules counted. Results of Histological Analysis. Obvious histological changes were not seen in the testis until two weeks after treatment. (Data no shown). […] A few Sertoli cell nuclei and spermatogonia were detectable in the periphery along the basement membrane. […] Some spermatids and spermatozoa were seen as well as a few spermatocytes.

For data set [2], the system named is testicular cells within the seminiferous tubules. The data set is described as follows: In vivo transduction of male germ cells using a viral vector (Example 14). Details: species or system C57BL/6J mice. As to conditions: 4 μg/gm body wt IP, 44 days prior to viral infection. The text has this:
A retroviral vector was used to transduce (genetically alter or modify) male germ cells of mice in vivo. Specifically, a pseudo-typed HIV-derived viral vector (L. Naldini et al., In vivo gene delivery and stable transduction of nondividing cells by a Lentiviral vector, Science 272:263-67 [1996]), was used, as modified by Carlos Lois to express Green Flourescent Protein (GFP) instead of the LacZ reporter gene, under the transcriptional control of the CMV promoter (HR′GFP).
Recipient C57BL/6J mice were treated with busulfan 44 days prior to viral infection. C57BL/6J male mice were injected intraperitoneally with 0.1 ml busulfan at a concentration of 1 mg/ml. The dose was 4 μg busulfan/gm body wt. One pretreated mouse was anesthetized with Avertin (0.017 mls/gm body wt.), and a ventral midline incision was made and the right testis exposed.
The vas efferentia were dissected away from the fat, and ten microlitres of HIV-derived GFP vector, HR′GFP, at a titer of 1×10^9 particles/ml were injected into the seminiferous tubules of the right testis via the vas efferens of a busulfan-treated C57 BL/6J mouse. Injection was done with a quartz glass micropipette attached to a Picospritzer II. The Picospritzer was set at 80 psi and gave 1 second bursts upon manual depression of a foot pedal. […]

Data set [3] relates to male germ cells in the testis. The conditions noted are these: mice, cited from earlier work.
The next data set concerns testis germ cells. The data set is described as follows: Busulfan depopulation of testis before microinjection (Example 15). Type of data set: in vivo, mice. The conditions noted are these: IP 4 μg/g body wt. As to the method: The method of delivery (Winston, R. M. L., Microsurgical reanastomosis of the rabbit oviduct and its functional and pathological sequelae, Brit. J. Obstet. Gynaecol. 82:513-522 ([1975]) of viral particles into a single vas efferens, and thence to the seminiferous tubules, was first optimized in several mice (FIGS. 1a-1d). The mice were treated with busulfan (Myleran: Glaxo Wellcome) 14 days before microsurgery to maximize the chance of viral particles gaining access to spermatogonia, which lie on the basement lamella of the tubules. Busulfan, an alkylating cytotoxic agent, depopulates the testis (Bucci, L. and Meistrich, M., Effects of busulfan on murine spermatogenesis: cytotoxicity, sterility, sperm abnormalities, and dominant lethal mutations, Mut. Res. 176:259-268 [1987]). […] This implies that stem cells remain viable and can repopulate the testis. Stem cell spermatogonia are known to be resistant to insults, often surviving when other germ cell types are destroyed (Huckins, C. & Oakberg, W. F., Morphological and quantitative analysis of spermatogonia in mouse testes using whole mounted seminiferous tubules. II. The irradiated testes, Anat. Rec. 192:529-42 [1978]).

Several values for one entry are separate records, joined by “and”; a condition that tells them apart may be missing. Equal entries are not always repeated.

Regarding `CS(=O)(=O)OCCCCOS(C)(=O)=O` [Busulfan, 1,4-butanediol dimethanesulphonate], the “effect of pre-treatment on transduction of spermatogonia” value in the data set with male germ cells is recorded as “enhanced the transduction of spermatogonia”. Also, in data set [1] (in 50 tubules), the “Total No. Sperm heads” value was 957 and 764. For the same molecule, in data set [1], the “Average No. sperm heads/tubule” value was 19 and 15; the “depopulation of seminiferous tubules, comparison of treatment groups” value was “damage to the spermatogenic process”. Also, in data set [1] (one animal per line), the “Moderately damaged tubules, percent of tubules counted” value was 7% and 3%; the “No. Moderately damaged (seminiferous tubules)” value was 5 and 2; the “No. Severely damaged (seminiferous tubules)” value is 1 (1%) and 3; the “Severely damaged tubules, percent of tubules counted” value is 1 (1%) and 10%. The “mature spermatozoa in testis” value in data set [2] is “Very few mature spermatozoa were present”. In addition, the “depletion of male germ cells” value in data set [3] (13 mg-40 mg/kg body wt.) was “deplete male germs cells in the testis”. Moreover, the “duration of azoospermia after treatment” value in data set [3] (doses over 30 mg/kg body weight) is “up to 56 days”. Besides, in the data set on testis germ cells, the “elimination of germ cells from the tubules” value was “many of the spermatocytes, spermatids and spermatozoa were eliminated from the tubules”; the “recovery of testis and fertility” value is “the testis recovered three to four months afterward and fertility was restored”.

The values above are taken from US7294755B1 (priority 1997, dated 2007).
